Assay results as given in ChEMBL document CHEMBL3784999, “Investigation of 4-amino-5-alkynylpyrimidine-2(1H)-ones as anti-mycobacterial agents” (Bioorg Med Chem, 2016).
Values after ≈ are worked out from the molar mass of the structure shown. Active and inactive are the calls of the source. The rule behind the calls is not given here.

Legend:
Mycobacterium avium = test: Antimycobacterial activity against Mycobacterium avium ATCC 25291 assessed as inhibition of mycobacterial replication after 6 days by microplate Alamar blue assay; format: functional, Mycobacterium avium subsp. avium ATCC 25291; conditions: ATCC 25291, 144 h
[1] = system: Mycobacterium tuberculosis; test: Antimycobacterial activity against Mycobacterium tuberculosis H37Ra assessed as inhibition of mycobacterial replication at 50 ug/ml after 6 days by microplate Alamar blue assay; format: functional; conditions: 144 h
[2] = Cytotoxicity against African green monkey Vero cells assessed as cell viability after 3 days by XTT assay; format: cell-based; conditions: chlorocebus sabaeus
[3] = system: Mycobacterium tuberculosis; test: Antimycobacterial activity against Mycobacterium tuberculosis H37Ra assessed as inhibition of mycobacterial replication after 6 days by microplate Alamar blue assay; format: functional; conditions: 144 h
[4] = system: Mycobacterium tuberculosis; test: Antimycobacterial activity against Mycobacterium tuberculosis H37Ra assessed as inhibition of mycobacterial replication at 200 ug/ml after 6 days by microplate Alamar blue assay; format: functional; conditions: 144 h
Mus musculus [5] = test: Toxicity in BALB/c mouse infected with Mycobacterium tuberculosis H37Ra assessed as change in cholesterol level in serum at 6.25 to 25 mg/kg, po administered for 2 weeks started on day 4 post bacterial infection; format: organism-based; conditions: in vivo, 336 h
Mus musculus [6] = test: Toxicity in BALB/c mouse infected with Mycobacterium tuberculosis H37Ra assessed as change in creatinine level in serum at 6.25 to 25 mg/kg, po administered for 2 weeks started on day 4 post bacterial infection; format: organism-based; conditions: in vivo, 336 h
Mus musculus [7] = test: Toxicity in BALB/c mouse infected with Mycobacterium tuberculosis H37Ra assessed as change in phosphate level in serum at 6.25 to 25 mg/kg, po administered for 2 weeks started on day 4 post bacterial infection; format: organism-based; conditions: in vivo, 336 h
Mus musculus [8] = test: Toxicity in BALB/c mouse infected with Mycobacterium tuberculosis H37Ra assessed as gross necroscopy changes at 6.25 to 25 mg/kg, po administered for 2 weeks started on day 4 post bacterial infection; format: organism-based; conditions: in vivo, 336 h
Mus musculus [9] = test: Toxicity in BALB/c mouse infected with Mycobacterium tuberculosis H37Ra assessed as change in creatinine level in serum at 6.25 to 25 mg/kg, po administered for 2 weeks started on day 4 post bacterial infection in presence of isoniazid; format: organism-based; conditions: in vivo, 336 h
[10] = system: Mycobacterium tuberculosis; test: Antimycobacterial activity against Mycobacterium tuberculosis H37Ra infected in BALB/c mouse assessed as reduction of bacterial load in spleen at 25 mg/kg, po administered for 2 weeks started on day 4 post bacterial infection measured 3 days post last dose; format: functional
Mus musculus [11] = test: Toxicity in BALB/c mouse infected with Mycobacterium tuberculosis H37Ra assessed as change in urea level in serum at 6.25 to 25 mg/kg, po administered for 2 weeks started on day 4 post bacterial infection; format: organism-based; conditions: in vivo, 336 h
Mus musculus [12] = test: Toxicity in BALB/c mouse infected with Mycobacterium tuberculosis H37Ra assessed as change in amylase level in serum at 6.25 to 25 mg/kg, po administered for 2 weeks started on day 4 post bacterial infection in presence of isoniazid; format: organism-based; conditions: in vivo, 336 h
Mus musculus [13] = test: Toxicity in BALB/c mouse infected with Mycobacterium tuberculosis H37Ra assessed as change in alkaline phosphatase level in serum at 6.25 to 25 mg/kg, po administered for 2 weeks started on day 4 post bacterial infection in presence of isoniazid; format: organism-based; conditions: in vivo, 336 h
[14] = system: Mycobacterium tuberculosis; test: Antimycobacterial activity against Mycobacterium tuberculosis H37Ra infected in BALB/c mouse assessed as reduction of bacterial load in spleen at 12.5 mg/kg, po administered for 2 weeks started on day 4 post bacterial infection measured 3 days post last dose co-treated with 1 mg/kg, po isoniazid; format: functional
Mus musculus [15] = test: Toxicity in BALB/c mouse infected with Mycobacterium tuberculosis H37Ra assessed as behavioral changes at 6.25 to 25 mg/kg, po administered for 2 weeks started on day 4 post bacterial infection in presence of isoniazid; format: organism-based; conditions: in vivo, 336 h
Mus musculus [16] = test: Toxicity in BALB/c mouse infected with Mycobacterium tuberculosis H37Ra assessed as change in cholesterol level in serum at 6.25 to 25 mg/kg, po administered for 2 weeks started on day 4 post bacterial infection in presence of isoniazid; format: organism-based; conditions: in vivo, 336 h
Mus musculus [17] = test: Toxicity in BALB/c mouse infected with Mycobacterium tuberculosis H37Ra assessed as weight loss at 6.25 to 25 mg/kg, po administered for 2 weeks started on day 4 post bacterial infection in presence of isoniazid; format: organism-based; conditions: in vivo, 336 h
Mus musculus [18] = test: Toxicity in BALB/c mouse infected with Mycobacterium tuberculosis H37Ra assessed as weight loss at 6.25 to 25 mg/kg, po administered for 2 weeks started on day 4 post bacterial infection; format: organism-based; conditions: in vivo, 336 h
Mus musculus [19] = test: Toxicity in BALB/c mouse infected with Mycobacterium tuberculosis H37Ra assessed as change in calcium level in serum at 6.25 to 25 mg/kg, po administered for 2 weeks started on day 4 post bacterial infection in presence of isoniazid; format: organism-based; conditions: in vivo, 336 h
[20] = system: Mycobacterium tuberculosis; test: Antimycobacterial activity against Mycobacterium tuberculosis H37Ra infected in BALB/c mouse assessed as reduction of bacterial load in lung at 12.5 mg/kg, po administered for 2 weeks started on day 4 post bacterial infection measured 3 days post last dose co-treated with 1 mg/kg, po isoniazid; format: functional
Mus musculus [21] = test: Toxicity in BALB/c mouse infected with Mycobacterium tuberculosis H37Ra assessed as change in alkaline phosphatase level in serum at 6.25 to 25 mg/kg, po administered for 2 weeks started on day 4 post bacterial infection; format: organism-based; conditions: in vivo, 336 h
Mus musculus [22] = test: Toxicity in BALB/c mouse infected with Mycobacterium tuberculosis H37Ra assessed as change in urea level in serum at 6.25 to 25 mg/kg, po administered for 2 weeks started on day 4 post bacterial infection in presence of isoniazid; format: organism-based; conditions: in vivo, 336 h
[23] = system: Mycobacterium tuberculosis; test: Antimycobacterial activity against Mycobacterium tuberculosis H37Ra infected in BALB/c mouse assessed as reduction of bacterial load in lung at 25 mg/kg, po administered for 2 weeks started on day 4 post bacterial infection measured 3 days post last dose; format: functional
Mus musculus [24] = test: Toxicity in BALB/c mouse infected with Mycobacterium tuberculosis H37Ra assessed as change in phosphate level in serum at 6.25 to 25 mg/kg, po administered for 2 weeks started on day 4 post bacterial infection in presence of isoniazid; format: organism-based; conditions: in vivo, 336 h
[25] = system: Mycobacterium tuberculosis; test: Ratio MIC90 for Mycobacterium tuberculosis H37Ra in presence of isoniazid to MIC90 for Mycobacterium tuberculosis H37Ra in absence of isoniazid; format: functional
Mus musculus [26] = test: Toxicity in BALB/c mouse infected with Mycobacterium tuberculosis H37Ra at 6.25 to 25 mg/kg, po administered for 2 weeks started on day 4 post bacterial infection by necroscopy in presence of isoniazid; format: organism-based; conditions: in vivo, 336 h
Mus musculus [27] = test: Toxicity in BALB/c mouse infected with Mycobacterium tuberculosis H37Ra at 6.25 to 25 mg/kg, po administered for 2 weeks started on day 4 post bacterial infection by necroscopy; format: organism-based; conditions: in vivo, 336 h
Mus musculus [28] = test: Toxicity in BALB/c mouse infected with Mycobacterium tuberculosis H37Ra assessed as behavioral changes at 6.25 to 25 mg/kg, po administered for 2 weeks started on day 4 post bacterial infection; format: organism-based; conditions: in vivo, 336 h
Mus musculus [29] = test: Toxicity in BALB/c mouse infected with Mycobacterium tuberculosis H37Ra assessed as change in amylase level in serum at 6.25 to 25 mg/kg, po administered for 2 weeks started on day 4 post bacterial infection; format: organism-based; conditions: in vivo, 336 h
[30] = system: Mycobacterium tuberculosis; test: Antimycobacterial activity against Mycobacterium tuberculosis H37Ra assessed as inhibition of mycobacterial replication at 6.25 ug/ml after 6 days by microplate Alamar blue assay in presence of isoniazid; format: functional; conditions: 144 h
Mus musculus [31] = test: Toxicity in BALB/c mouse infected with Mycobacterium tuberculosis H37Ra assessed as change in calcium level in serum at 6.25 to 25 mg/kg, po administered for 2 weeks started on day 4 post bacterial infection; format: organism-based; conditions: in vivo, 336 h
[32] = system: Mycobacterium tuberculosis; test: Antimycobacterial activity against Mycobacterium tuberculosis H37Ra assessed as inhibition of mycobacterial replication at 6.25 ug/ml after 6 days by microplate Alamar blue assay in absence of isoniazid; format: functional, organism-based
[33] = system: Mycobacterium tuberculosis; test: Antimycobacterial activity against Mycobacterium tuberculosis H37Ra infected in BALB/c mouse assessed as reduction of bacterial load in liver at 25 mg/kg, po administered for 2 weeks started on day 4 post bacterial infection measured 3 days post last dose; format: functional
[34] = system: Mycobacterium tuberculosis; test: Antimycobacterial activity against Mycobacterium tuberculosis H37Ra infected in BALB/c mouse assessed as reduction of bacterial load in spleen at 1 mg/kg, po administered for 2 weeks started on day 4 post bacterial infection measured 3 days post last dose; format: functional, organism-based
[35] = system: Mycobacterium tuberculosis; test: Antimycobacterial activity against Mycobacterium tuberculosis H37Ra infected in BALB/c mouse assessed as reduction of bacterial load in liver at 1 mg/kg, po administered for 2 weeks started on day 4 post bacterial infection measured 3 days post last dose; format: functional, organism-based
[36] = system: Mycobacterium tuberculosis; test: Antimycobacterial activity against Mycobacterium tuberculosis H37Ra infected in BALB/c mouse assessed as reduction of bacterial load in lung at 1 mg/kg, po administered for 2 weeks started on day 4 post bacterial infection measured 3 days post last dose; format: functional, organism-based
[37] = system: Mycobacterium tuberculosis; test: Antimycobacterial activity against Mycobacterium tuberculosis H37Ra assessed as inhibition of mycobacterial replication at 0.05 ug/ml after 6 days by microplate Alamar blue assay in absence of isoniazid; format: functional; conditions: 144 h

## CC[C@H]1OC(=O)[C@H](C)[C@@H](O[C@H]2C[C@@](C)(OC)[C@@H](O)[C@H](C)O2)[C@H](C)[C@@H](O[C@@H]2O[C@H](C)C[C@H](N(C)C)[C@H]2O)[C@](C)(OC)C[C@@H](C)C(=O)[C@H](C)[C@@H](O)[C@]1(C)O [CLARITHROMYCIN]
Mycobacterium avium
  MIC90: 2 µg/mL (≈ 2.67 µM)

## CCCCCCCCC#Cc1c[nH]c(=O)nc1N
[1]
  inhibition at 50 µg/mL: 50%
[2]
  CC50 at 72 h: > 200 µg/mL
[3]
  MIC50: 50 µg/mL (≈ 202 µM)
[4]
  inhibition at 200 µg/mL: 100%

## Nc1nc(=O)[nH]cc1C#Cc1ccccc1
Mus musculus [5]
  Activity: Non-toxic
Mus musculus [6]
  Activity: Non-toxic
[2]
  CC50 at 72 h: > 200 µg/mL
Mus musculus [7]
  Activity: Non-toxic
Mus musculus [8]
  Activity: Non-toxic
Mus musculus [9]
  Activity: Non-toxic
[10]
  inhibition: inactive
Mus musculus [11]
  Activity: Non-toxic
Mus musculus [12]
  Activity: Non-toxic
Mus musculus [13]
  Activity: Non-toxic
[14]
  inhibition (INH): 45%
Mus musculus [15]
  Activity: Non-toxic
Mus musculus [16]
  Activity: Non-toxic
Mus musculus [17]
  Activity: Non-toxic
Mus musculus [18]
  Activity: Non-toxic
Mus musculus [19]
  Activity: Non-toxic
[20]
  inhibition (INH): 70%
[3]
  MIC50: 25 µg/mL (≈ 118 µM)
Mus musculus [21]
  Activity: Non-toxic
Mus musculus [22]
  Activity: Non-toxic
[23]
  inhibition: inactive
Mus musculus [24]
  Activity: Non-toxic
[25]
  fractional inhibitory concentration index (FICI): 0.25
Mus musculus [26]
  Activity: Non-toxic
Mus musculus [27]
  Activity: Non-toxic
Mus musculus [28]
  Activity: Non-toxic
Mus musculus [29]
  Activity: Non-toxic
[30]
  inhibition at 6.25 µg/mL: 100%
Mus musculus [31]
  Activity: Non-toxic
[32]
  inhibition: inactive
[33]
  inhibition: inactive

## CCCCCCCCCCCCC#Cc1c[nH]c(=O)nc1N
[2]
  CC50 at 72 h: > 200 µg/mL

## CCCCCCCCCCCC#Cc1c[nH]c(=O)nc1N
[2]
  CC50 at 72 h: > 200 µg/mL

## CO[C@H]1/C=C/O[C@@]2(C)Oc3c(C)c(O)c4c(O)c(c(/C=N/N5CCN(C)CC5)c(O)c4c3C2=O)NC(=O)/C(C)=C\C=C\[C@H](C)[C@H](O)[C@@H](C)[C@@H](O)[C@@H](C)[C@H](OC(C)=O)[C@@H]1C [RIFAMPIN]
[3]
  MIC90: 0.5 µg/mL (≈ 0.608 µM)
Mycobacterium avium
  MIC90: 2 µg/mL (≈ 2.43 µM)

## NNC(=O)c1ccncc1 [ISONIAZID]
[34]
  Activity: inactive
[35]
  Activity: inactive
[36]
  Activity: inactive
[37]
  inhibition at 0.05 µg/mL: 10%
